Measured values taken from ChEMBL document CHEMBL3822457, “Synthesis and biological analysis of novel glycoside derivatives of l-AEP, as targeted antibacterial agents” (2016).
Activity calls are given as the source filed them. The rule behind the calls is not given here.

Columns and labels:
Pseudomonas aeruginosa [1] = test: Antibacterial activity against Pseudomonas aeruginosa ATCC 27853 in presence of DM1 at pH 6.9; assay type: functional
Cronobacter sakazakii [2] = test: Antibacterial activity against Cronobacter sakazakii ATCC 29544 in presence of DM1 at pH 6.9; assay type: functional
Klebsiella aerogenes [3] = test: Antibacterial activity against Enterobacter aerogenes ATCC 13048 in presence of DM1 at pH 7.2; assay type: functional
Salmonella typhimurium [4] = test: Antibacterial activity against Salmonella enterica serovar Typhimurium ATCC 14028 in presence of DM1 at pH 7.2; assay type: functional, Salmonella enterica subsp. enterica serovar Typhimurium
Pseudomonas aeruginosa [5] = test: Antibacterial activity against Pseudomonas aeruginosa ATCC 27853 in presence of NB2 medium at pH 7.2; assay type: functional
Pseudomonas aeruginosa [6] = test: Antibacterial activity against Pseudomonas aeruginosa ATCC 27853 in presence of DM1 and glucose at pH 7.2; assay type: functional
Klebsiella pneumoniae [7] = test: Antibacterial activity against Klebsiella pneumoniae ATCC 13882 in presence of NB2 medium at pH 7.2; assay type: functional
[8] = Antibacterial activity against Salmonella enterica serovar Virchow ATCC 5742 in presence of NB2 medium at pH 7.2; assay type: functional, Salmonella enterica subsp. enterica serovar Virchow
Salmonella typhimurium [9] = test: Antibacterial activity against Salmonella enterica serovar Typhimurium ATCC 14028 in presence of DM1 and glucose at pH 7.2; assay type: functional, Salmonella enterica subsp. enterica serovar Typhimurium
Salmonella typhimurium [10] = test: Antibacterial activity against Salmonella enterica serovar Typhimurium ATCC 14028 in presence of DM1 at pH 6.9; assay type: functional, Salmonella enterica subsp. enterica serovar Typhimurium
Klebsiella pneumoniae [11] = test: Antibacterial activity against Klebsiella pneumoniae ATCC 13882 in presence of DM1 at pH 6.9; assay type: functional
Serratia marcescens [12] = test: Antibacterial activity against Serratia marcescens ATCC 13880 in presence of NB2 medium at pH 7.2; assay type: functional; conditions: subsp. marcescens ATCC 13880
Salmonella typhimurium [13] = test: Antibacterial activity against Salmonella enterica serovar Typhimurium ATCC 14028 in presence of NB2 medium at pH 7.2; assay type: functional, Salmonella enterica subsp. enterica serovar Typhimurium
Cronobacter sakazakii [14] = test: Antibacterial activity against Cronobacter sakazakii ATCC 29544 in presence of DM1 at pH 7.2; assay type: functional
Pseudomonas aeruginosa [15] = test: Antibacterial activity against Pseudomonas aeruginosa ATCC 27853 in presence of DM1 at pH 7.2; assay type: functional
[16] = Antibacterial activity against Salmonella enterica serovar Virchow ATCC 5742 in presence of DM1 and glucose at pH 7.2; assay type: functional, Salmonella enterica subsp. enterica serovar Virchow
Klebsiella pneumoniae [17] = test: Antibacterial activity against Klebsiella pneumoniae ATCC 13882 in presence of DM1 and glucose at pH 7.2; assay type: functional
[18] = Antibacterial activity against Salmonella enterica serovar Virchow ATCC 5742 in presence of DM1 at pH 6.9; assay type: functional, Salmonella enterica subsp. enterica serovar Virchow
[19] = Antibacterial activity against Salmonella enterica serovar Virchow ATCC 5742 in presence of DM1 at pH 7.2; assay type: functional, Salmonella enterica subsp. enterica serovar Virchow
Klebsiella pneumoniae [20] = test: Antibacterial activity against Klebsiella pneumoniae ATCC 13882 in presence of DM1 at pH 7.2; assay type: functional
Serratia marcescens [21] = test: Antibacterial activity against Serratia marcescens ATCC 13880 in presence of DM1 at pH 6.9; assay type: functional; conditions: subsp. marcescens ATCC 13880
Proteus mirabilis [22] = test: Antibacterial activity against Proteus mirabilis ATCC 14253 in presence of DM1 at pH 6.9; assay type: functional
Klebsiella aerogenes [23] = test: Antibacterial activity against Enterobacter aerogenes ATCC 13048 in presence of DM1 at pH 6.9; assay type: functional
Proteus mirabilis [24] = test: Antibacterial activity against Proteus mirabilis ATCC 14253 in presence of DM1 and glucose at pH 7.2; assay type: functional
Serratia marcescens [25] = test: Antibacterial activity against Serratia marcescens ATCC 13880 in presence of DM1 and glucose at pH 7.2; assay type: functional; conditions: subsp. marcescens ATCC 13880
Klebsiella aerogenes [26] = test: Antibacterial activity against Enterobacter aerogenes ATCC 13048 in presence of DM1 and glucose at pH 7.2; assay type: functional
Proteus mirabilis [27] = test: Antibacterial activity against Proteus mirabilis ATCC 14253 in presence of DM1 at pH 7.2; assay type: functional
Klebsiella aerogenes [28] = test: Antibacterial activity against Enterobacter aerogenes ATCC 13048 in presence of NB2 medium at pH 7.2; assay type: functional
Cronobacter sakazakii [29] = test: Antibacterial activity against Cronobacter sakazakii ATCC 29544 in presence of NB2 medium at pH 7.2; assay type: functional
Proteus mirabilis [30] = test: Antibacterial activity against Proteus mirabilis ATCC 14253 in presence of NB2 medium at pH 7.2; assay type: functional
Serratia marcescens [31] = test: Antibacterial activity against Serratia marcescens ATCC 13880 in presence of DM1 at pH 7.2; assay type: functional; conditions: subsp. marcescens ATCC 13880
Cronobacter sakazakii [32] = test: Antibacterial activity against Cronobacter sakazakii ATCC 29544 in presence of DM1 and glucose at pH 7.2; assay type: functional
Klebsiella pneumoniae [33] = test: Antibacterial activity against Klebsiella pneumoniae ATCC 13882 at 2 mg/ml in presence of DM1 at pH 7.2 in absence of IPTG; assay type: functional, organism-based
Klebsiella pneumoniae [34] = test: Antibacterial activity against Klebsiella pneumoniae ATCC 13882 at 2 mg/ml in presence of DM1 and IPTG at pH 7.2; assay type: functional, organism-based
Klebsiella aerogenes [35] = test: Antibacterial activity against Enterobacter aerogenes ATCC 13048 at 2 mg/ml in presence of DM1 and IPTG at pH 7.2; assay type: functional, organism-based
[36] = system: Salmonella enterica subsp. enterica serovar Virchow; test: Antibacterial activity against Salmonella enterica serovar Virchow ATCC 5742 at 2 mg/ml in presence of DM1 at pH 7.2 in absence of IPTG; assay type: functional
Klebsiella aerogenes [37] = test: Antibacterial activity against Enterobacter aerogenes ATCC 13048 at 2 mg/ml in presence of DM1 at pH 7.2 in absence of IPTG; assay type: functional, organism-based
[38] = system: Salmonella enterica subsp. enterica serovar Virchow; test: Antibacterial activity against Salmonella enterica serovar Virchow ATCC 5742 at 2 mg/ml in presence of DM1 and IPTG at pH 7.2; assay type: functional
Salmonella typhimurium [39] = test: Antibacterial activity against Salmonella enterica serovar Typhimurium ATCC 14028 at 2 mg/ml in presence of DM1 at pH 7.2 in absence of IPTG; assay type: functional, organism-based; conditions: Salmonella enterica subsp. enterica serovar Typhimurium
Cronobacter sakazakii [40] = test: Antibacterial activity against Cronobacter sakazakii ATCC 29544 at 2 mg/ml in presence of DM1 and IPTG at pH 7.2; assay type: functional
Salmonella typhimurium [41] = test: Antibacterial activity against Salmonella enterica serovar Typhimurium ATCC 14028 at 2 mg/ml in presence of DM1 and IPTG at pH 7.2; assay type: functional, organism-based; conditions: Salmonella enterica subsp. enterica serovar Typhimurium
Cronobacter sakazakii [42] = test: Antibacterial activity against Cronobacter sakazakii ATCC 29544 at 2 mg/ml in presence of DM1 at pH 7.2 in absence of IPTG; assay type: functional

Compound: C[C@H](NC(=O)O[C@@H]1O[C@H](CO)[C@@H](O)[C@H](O)[C@H]1O)P(=O)(O)O
- MIC (Pseudomonas aeruginosa [1]): < 0.75 mg/L
- MIC (Cronobacter sakazakii [2]): < 0.75 mg/L
- MIC (Klebsiella aerogenes [3]): > 1 mg/L
- MIC (Salmonella typhimurium [4]): > 1 mg/L
- MIC (Pseudomonas aeruginosa [5]): 1 mg/L
- MIC (Pseudomonas aeruginosa [6]): 1 mg/L
- MIC (Klebsiella pneumoniae [7]): > 1 mg/L
- MIC [8]: > 1 mg/L
- MIC (Salmonella typhimurium [9]): > 1 mg/L
- MIC (Salmonella typhimurium [10]): > 1 mg/L
- MIC (Klebsiella pneumoniae [11]): > 1 mg/L
- MIC (Serratia marcescens [12]): > 1 mg/L
- MIC (Salmonella typhimurium [13]): > 1 mg/L
- MIC (Cronobacter sakazakii [14]): < 0.75 mg/L
- MIC (Pseudomonas aeruginosa [15]): < 0.75 mg/L
- MIC [16]: > 1 mg/L
- MIC (Klebsiella pneumoniae [17]): 1 mg/L
- MIC [18]: > 1 mg/L
- MIC [19]: > 1 mg/L
- MIC (Klebsiella pneumoniae [20]): > 1 mg/L
- MIC (Serratia marcescens [21]): < 0.75 mg/L
- MIC (Proteus mirabilis [22]): > 1 mg/L
- MIC (Klebsiella aerogenes [23]): < 0.75 mg/L
- MIC (Proteus mirabilis [24]): > 1 mg/L
- MIC (Serratia marcescens [25]): 1 mg/L
- MIC (Klebsiella aerogenes [26]): 1 mg/L
- MIC (Proteus mirabilis [27]): > 1 mg/L
- MIC (Klebsiella aerogenes [28]): > 1 mg/L
- MIC (Cronobacter sakazakii [29]): 1 mg/L
- MIC (Proteus mirabilis [30]): > 1 mg/L
- MIC (Serratia marcescens [31]): 1 mg/L
- MIC (Cronobacter sakazakii [32]): < 0.75 mg/L

Compound: C[C@H](NC(=O)O[C@@H]1O[C@H](CO)[C@H](O)[C@H](O)[C@H]1O)P(=O)(O)O
- Activity (Klebsiella pneumoniae [33]): inactive
- Activity (Klebsiella pneumoniae [34]): Active
- Activity (Klebsiella aerogenes [35]): inactive
- Activity [36]: inactive
- Activity (Klebsiella aerogenes [37]): inactive
- Activity [38]: inactive
- Activity (Salmonella typhimurium [39]): inactive
- Activity (Cronobacter sakazakii [40]): Active
- Activity (Salmonella typhimurium [41]): inactive
- Activity (Cronobacter sakazakii [42]): inactive
